Assay results published in patent US12077503B2, “Substituted cyclic amides and their use as herbicides” (FMC CORPORATION, priority 2015, dated 2024).

Assays:
Type in all cases: in vivo
Kochia (Kochia scoparia) [1] = test: Test A preemergence; conditions: Bassia scoparia, pre-emergence, 240 h, preemergence, 0 to 100 scale where 0 is no effect and 100 is complete control, read-out: Kochia plant response rating
Summary of the method: (§1)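 Visual injury, scored on a 0–100 scale relative to untreated controls, was recorded about 10 d after application. Treatments were a preemergence soil spray over planted seeds or a postemergence spray on plants at the one- to two-leaf stage, 2 to 10 cm tall, all in loam soil–sand blend in the greenhouse.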

[2] = tested on: barnyardgrass (Echinochloa crus-galli); test: Test A preemergence; conditions: Echinochloa crus-galli, pre-emergence, 240 h, preemergence, 0 to 100 scale where 0 is no effect and 100 is complete control, read-out: Barnyardgrass plant response rating
Summary of the method: as §1

[3] = tested on: giant foxtail (Setaria faberii); test: Test A preemergence; conditions: Setaria faberi, pre-emergence, 240 h, preemergence, 0 to 100 scale where 0 is no effect and 100 is complete control, read-out: Foxtail, Giant plant response rating
Summary of the method: as §1

[4] = tested on: pigweed (Amaranthus retroflexus); test: Test A preemergence; conditions: Amaranthus retroflexus, pre-emergence, 240 h, preemergence, 0 to 100 scale where 0 is no effect and 100 is complete control, read-out: Pigweed plant response rating
[5] = tested on: ragweed (common ragweed, Ambrosia elatior); test: Test A preemergence; conditions: Ambrosia artemisiifolia, pre-emergence, 240 h, preemergence, 0 to 100 scale where 0 is no effect and 100 is complete control, read-out: Ragweed plant response rating
Summary of the method: as §1

[6] = tested on: ryegrass, Italian (Italian ryegrass, Lolium multiflorum); test: Test A preemergence; conditions: Lolium multiflorum, pre-emergence, 240 h, preemergence, 0 to 100 scale where 0 is no effect and 100 is complete control, read-out: Ryegrass, Italian plant response rating
Summary of the method: as §1

[7] = tested on: Galium (catchweed bedstraw, Galium aparine); test: Test A postemergence; conditions: Galium, post-emergence, 240 h, Postemergence
Summary of the method: as §1

Kochia (Kochia scoparia) [8] = test: Test A postemergence; conditions: Bassia scoparia, post-emergence, 240 h, Postemergence
Summary of the method: as §1

[9] = tested on: barnyardgrass (Echinochloa crus-galli); test: Test A postemergence; conditions: Echinochloa crus-galli, post-emergence, 240 h, Postemergence
Summary of the method: as §1

[10] = tested on: blackgrass (Alopecurus myosuroides); test: Test A postemergence; conditions: Alopecurus myosuroides, post-emergence, 240 h, Postemergence
Summary of the method: as §1

corn (Zea mays) = test: Test A postemergence; conditions: Zea mays, post-emergence, 240 h, Postemergence
Summary of the method: as §1

[11] = tested on: giant foxtail (Setaria faberii); test: Test A postemergence; conditions: Setaria faberi, post-emergence, 240 h, Postemergence
Summary of the method: as §1

[12] = tested on: pigweed (Amaranthus retroflexus); test: Test A postemergence; conditions: Amaranthus retroflexus, post-emergence, 240 h, Postemergence
Summary of the method: as §1

[13] = tested on: ragweed (common ragweed, Ambrosia elatior); test: Test A postemergence; conditions: Ambrosia artemisiifolia, post-emergence, 240 h, Postemergence
Summary of the method: as §1

[14] = tested on: ryegrass, Italian (Italian ryegrass, Lolium multiflorum); test: Test A postemergence; conditions: Lolium multiflorum, post-emergence, 240 h, Postemergence
Summary of the method: as §1

[15] = tested on: wheat (Triticum aestivum); test: Test A postemergence; conditions: Triticum aestivum, post-emergence, 240 h, Postemergence
Summary of the method: as §1

[16] = 125 g ai/ha, visual injury rating, approximately 10 d

## COc1cc([C@H]2CN(C)C(=O)[C@@H]2C(=O)Nc2ccccc2S(C)(=O)=O)ccc1F [Compound 1302]
Kochia (Kochia scoparia) [1]; [16]
  pest or weed control at 125 g/ha: 0%
Kochia (Kochia scoparia) [1]; 500 g ai/ha
  pest or weed control at 500 g/ha: 60%
[2]; [16]
  pest or weed control at 125 g/ha: 60%
[2]; 500 g ai/ha
  pest or weed control at 500 g/ha: 90%
[3]; [16]
  pest or weed control at 125 g/ha: 90%
[3]; 500 g ai/ha
  pest or weed control at 500 g/ha: 90%
[4]; [16]
  pest or weed control at 125 g/ha: 0%
[4]; 500 g ai/ha
  pest or weed control at 500 g/ha: 30%
[5]; [16]
  pest or weed control at 125 g/ha: 0%
[5]; 500 g ai/ha
  pest or weed control at 500 g/ha: 50%
[6]; [16]
  pest or weed control at 125 g/ha: 0%
[6]; 500 g ai/ha
  pest or weed control at 500 g/ha: 0%
[7]; 125 g ai/ha, visual rating about 10 d after treatment, read-out: Galium plant response rating (0 to 100 scale)
  pest or weed control at 125 g/ha: 0%
[7]; 500 g ai/ha, visual injury, 0 to 100 scale (0 no effect, 100 complete control), approx. 10 d, read-out: Plant response rating, Galium
  pest or weed control at 500 g/ha: 30%
Kochia (Kochia scoparia) [8]; 125 g ai/ha, visual rating about 10 d after treatment, read-out: Kochia plant response rating (0 to 100 scale)
  pest or weed control at 125 g/ha: 0%
Kochia (Kochia scoparia) [8]; 500 g ai/ha, visual injury, 0 to 100 scale (0 no effect, 100 complete control), approx. 10 d, read-out: Plant response rating, Kochia
  pest or weed control at 500 g/ha: 20%
[9]; 125 g ai/ha, visual rating about 10 d after treatment, read-out: Barnyardgrass plant response rating (0 to 100 scale, 0 no effect, 100 complete control)
  pest or weed control at 125 g/ha: 60%
[9]; 500 g ai/ha, visual injury, 0 to 100 scale (0 no effect, 100 complete control), approx. 10 d, read-out: Plant response rating, Barnyardgrass
  pest or weed control at 500 g/ha: 90%
[10]; 125 g ai/ha, visual rating about 10 d after treatment, read-out: Blackgrass plant response rating (0 to 100 scale)
  pest or weed control at 125 g/ha: 0%
[10]; 500 g ai/ha, visual injury, 0 to 100 scale (0 no effect, 100 complete control), approx. 10 d, read-out: Plant response rating, Blackgrass
  pest or weed control at 500 g/ha: 20%
Corn (Zea mays); 125 g ai/ha, visual rating about 10 d after treatment, read-out: Corn plant response rating (0 to 100 scale)
  plant injury at 125 g/ha: 0%
Corn (Zea mays); 500 g ai/ha, visual injury, 0 to 100 scale (0 no effect, 100 complete control), approx. 10 d
  Corn plant response rating (crop injury, 0 = no effect, 100 = complete kill) at 500 g/ha: 0%
[11]; 125 g ai/ha, visual rating about 10 d after treatment, read-out: Foxtail, Giant plant response rating (0 to 100 scale)
  pest or weed control at 125 g/ha: 30%
[11]; 500 g ai/ha, visual injury, 0 to 100 scale (0 no effect, 100 complete control), approx. 10 d, read-out: Plant response rating, Foxtail, Giant
  pest or weed control at 500 g/ha: 80%
[12]; 125 g ai/ha, visual rating about 10 d after treatment, read-out: Pigweed plant response rating (0 to 100 scale)
  pest or weed control at 125 g/ha: 0%
[12]; 500 g ai/ha, visual injury, 0 to 100 scale (0 no effect, 100 complete control), approx. 10 d, read-out: Plant response rating, Pigweed
  pest or weed control at 500 g/ha: 0%
[13]; 125 g ai/ha, visual rating about 10 d after treatment, read-out: Ragweed plant response rating (0 to 100 scale)
  pest or weed control at 125 g/ha: 0%
[13]; 500 g ai/ha, visual injury, 0 to 100 scale (0 no effect, 100 complete control), approx. 10 d, read-out: Plant response rating, Ragweed
  pest or weed control at 500 g/ha: 0%
[14]; 125 g ai/ha, visual rating about 10 d after treatment, read-out: Ryegrass, Italian plant response rating (0 to 100 scale)
  pest or weed control at 125 g/ha: 0%
[14]; 500 g ai/ha, visual injury, 0 to 100 scale (0 no effect, 100 complete control), approx. 10 d, read-out: Plant response rating, Ryegrass, Italian
  pest or weed control at 500 g/ha: 20%
[15]; 125 g ai/ha, visual rating about 10 d after treatment, read-out: Wheat plant response rating (0 to 100 scale)
  plant injury at 125 g/ha: 0%
[15]; 500 g ai/ha, visual injury, 0 to 100 scale (0 no effect, 100 complete control), approx. 10 d, read-out: Plant response rating, Wheat
  plant injury at 500 g/ha: 0%
